In patent US20240316059A1, “PEPTIDE DRUG CONJUGATES” (Oncopeptides AB, priority 2021, published 2024):
pIC50: −log10 of the molar value. Where two headings read alike, the source gives them in different places.

Legend:
MM.1S cells = experiment: In vitro cytotoxic potency in MM.1S cell viability assay (CellTiter-Glo); format: cell-based, human; conditions: Homo sapiens, MM1.S, 72 h
Procedure: Methods: MM.1S Cells were cultivated in RPMI medium 1640 (IX) supplemented with 10 μg/μL penicillin/streptomycin, 10% heat inactivated FBS, 0.1 mM Sodium Pyruvate, 1×MEM NEAA (ThermoFisher) and 1 mM HEPES. Cells were grown to reach log phase before being exposed to the test compounds.
(§1) Test compounds (Example compounds 1 to 36, 38 to 41 and 45 to 48) and comparative compounds (bendamustine, busulfan, melphalan, chlorambucil and 4-hydroperoxy cyclophosphamide) were dissolved in 100% DMSO and added to a 384 assay plate. Additional DMSO was added to maintain the same final DMSO concentration (0.2%) in all wells. 25 μL cell suspension with a concentration of 100000 cells/mL was added to each well. The cells were cultured in a CO2 incubator at 37° C. for 72 h. Plates were equilibrated to room temperature for 30 minutes before adding 20 μL CellTiter-Glo® 2.0 (Promega) reagent to all wells. The plate was then allowed to stabilize for 20 minutes before recording the luminescence (emission filter 700 nm) in an Envision plate reader.
(§2) All cells were cultivated in RPMI medium 1640 (IX). All media was supplemented with 10 μg/μl penicillin/streptomycin, 10% heat inactivated FBS, 0.1 mM Sodium Pyruvate, 1×MEM NEAA (ThermoFisher) and 1 mM HEPES. The DERL-2 cells had higher FBS (20%) and 40 ng/mL IL-2 was added. hPBMCs were thawed and allowed to acclimatise overnight and then stimulated with 10 μg/mL PHA-M and 40 ng/mL IL-2 for 4 hours before being exposed to test compounds. All cells, except for hPBMCs, were grown to reach log phase before being exposed to the test compounds.
as §1, with “compounds” for “compounds (Example compounds 1 to 36, 38 to 41 and 45 to 48) and comparative compounds (bendamustine, busulfan, melphalan, chlorambucil and 4-hydroperoxy cyclophosphamide)”, “(Em” for “(emission”

U937 = experiment: In vitro cytotoxicity, U937 (Histiocytic Lymphoma); format: cell-based; conditions: Homo sapiens, U-937, 72 h, read-out: Cytotoxicity IC50, U937
Procedure: as §2
as §1, with “compounds” for “compounds (Example compounds 1 to 36, 38 to 41 and 45 to 48) and comparative compounds (bendamustine, busulfan, melphalan, chlorambucil and 4-hydroperoxy cyclophosphamide)”, “(Em” for “(emission”

RPMI-8226 = experiment: In vitro cytotoxicity, RPMI-8226 (Multiple Myeloma, resistant); format: cell-based; conditions: Homo sapiens, RPMI-8226, 72 h, read-out: Cytotoxicity IC50, RPMI-8226
Procedure: as §2
as §1, with “compounds” for “compounds (Example compounds 1 to 36, 38 to 41 and 45 to 48) and comparative compounds (bendamustine, busulfan, melphalan, chlorambucil and 4-hydroperoxy cyclophosphamide)”, “(Em” for “(emission”

SK-MM-1 = experiment: In vitro cytotoxicity, SK-MM-1 (Plasma Cell Leukemia); format: cell-based; conditions: Homo sapiens, 72 h, read-out: Cytotoxicity IC50, SK-MM-1
Procedure: as §2
as §1, with “compounds” for “compounds (Example compounds 1 to 36, 38 to 41 and 45 to 48) and comparative compounds (bendamustine, busulfan, melphalan, chlorambucil and 4-hydroperoxy cyclophosphamide)”, “(Em” for “(emission”

DOHH-2 = experiment: In vitro cytotoxicity, DOHH-2 (B Cell Lymphoma); format: cell-based; conditions: Homo sapiens, DOHH-2, 72 h, read-out: Cytotoxicity IC50, DOHH-2
Procedure: as §2
as §1, with “compounds” for “compounds (Example compounds 1 to 36, 38 to 41 and 45 to 48) and comparative compounds (bendamustine, busulfan, melphalan, chlorambucil and 4-hydroperoxy cyclophosphamide)”, “(Em” for “(emission”

HG-3 = experiment: In vitro cytotoxicity, HG-3 (Chronic Lymphocytic Leukemia); format: cell-based; conditions: Homo sapiens, HG-3, 72 h, read-out: Cytotoxicity IC50, HG-3
Procedure: as §2
as §1, with “compounds” for “compounds (Example compounds 1 to 36, 38 to 41 and 45 to 48) and comparative compounds (bendamustine, busulfan, melphalan, chlorambucil and 4-hydroperoxy cyclophosphamide)”, “(Em” for “(emission”

SC-1 = experiment: In vitro cytotoxicity, SC-1 (B cell Lymphoma); format: cell-based; conditions: Homo sapiens, SC-1, 72 h, read-out: Cytotoxicity IC50, SC-1
Procedure: as §2
as §1, with “compounds” for “compounds (Example compounds 1 to 36, 38 to 41 and 45 to 48) and comparative compounds (bendamustine, busulfan, melphalan, chlorambucil and 4-hydroperoxy cyclophosphamide)”, “(Em” for “(emission”

SU-DHL-8 = experiment: In vitro cytotoxicity, SU-DHL-8 (B-cell non-Hodgkin Lymphoma); format: cell-based; conditions: Homo sapiens, SU-DHL-8, 72 h, read-out: Cytotoxicity IC50, SU-DHL-8
Procedure: as §2
as §1, with “compounds” for “compounds (Example compounds 1 to 36, 38 to 41 and 45 to 48) and comparative compounds (bendamustine, busulfan, melphalan, chlorambucil and 4-hydroperoxy cyclophosphamide)”, “(Em” for “(emission”

Toledo = experiment: In vitro cytotoxicity, Toledo (Diffuse Large B Cell Lymphoma); format: cell-based; conditions: Homo sapiens, 72 h, read-out: Cytotoxicity IC50, Toledo
Procedure: as §2
as §1, with “compounds” for “compounds (Example compounds 1 to 36, 38 to 41 and 45 to 48) and comparative compounds (bendamustine, busulfan, melphalan, chlorambucil and 4-hydroperoxy cyclophosphamide)”, “(Em” for “(emission”

DERL-2 = experiment: In vitro cytotoxicity, DERL-2 (T cell Lymphoma); format: cell-based; conditions: Homo sapiens, 72 h, read-out: Cytotoxicity IC50, DERL-2
Procedure: as §2
as §1, with “compounds” for “compounds (Example compounds 1 to 36, 38 to 41 and 45 to 48) and comparative compounds (bendamustine, busulfan, melphalan, chlorambucil and 4-hydroperoxy cyclophosphamide)”, “(Em” for “(emission”

SUP-T1 = experiment: In vitro cytotoxicity, SUP-T1 (T cell Lymphoma); format: cell-based; conditions: Homo sapiens, SUP-T1, 72 h, read-out: Cytotoxicity IC50, SUP-T1
Procedure: as §2
as §1, with “compounds” for “compounds (Example compounds 1 to 36, 38 to 41 and 45 to 48) and comparative compounds (bendamustine, busulfan, melphalan, chlorambucil and 4-hydroperoxy cyclophosphamide)”, “(Em” for “(emission”

[1] = In vitro cytotoxicity, human peripheral blood mononuclear cells; format: cell-based; conditions: CellTiter-Glo 2.0, stimulated with PHA-M and IL-2, read-out: Cytotoxicity IC50, hPBMC
Procedure: as §2
as §1, with “compounds” for “compounds (Example compounds 1 to 36, 38 to 41 and 45 to 48) and comparative compounds (bendamustine, busulfan, melphalan, chlorambucil and 4-hydroperoxy cyclophosphamide)”, “(Em” for “(emission”

[2] = tested on: DNA prepared from MM.1S cells (nuclear HPRT and mitochondrial DNA); experiment: Direct DNA damage, PCR amplification of treated DNA (HPRT and mtDNA primers); format: biochemical, human; conditions: 0.25 μM compound, 30 minutes, 37° C., 1 μg DNA
Procedure: Method: DNA was prepared from MM.1S cells by QIAGEN genomic tip 20/G according to protocol described in Furda et al., Methods Mol Biol, 2012. 1 μg of DNA was treated with 0.25 μM compound for 30 minutes at 37° C. DMSO was used as control treatment. 20 ng of the treated DNA was PCR amplified using Phusion Hot Start II High Fidelity PCR Master Mix (Thermo Scientific) and primers directed to either HPRT or primers directed to mitochondrial DNA (mtDNA) was used, generating 10.4 or 8.9 kb fragments, respectively. The PCR reactions were separated on a 1% agarose gel and visualized by ChemiDoc™ MP Imaging System (BioRad). Example compounds 1, 2 and 38 were investigated, as were compounds 18 and 20, which are metabolites of compound 1. They were compared with bendamustine, melphalan and DMSO control. The results for compounds 1, 2, 18 and 20 with the HPRT primers are shown in FIG. 4(A); the results with the mtDNA primers are shown in FIG. 4(B).

[3] = read-out: Cytotoxicity IC50, MM.1S

| Structure (SMILES) | pIC50 (MM.1S cells; [3]) | pIC50 (MM.1S cells; read-out: MM.1S IC50) | pIC50 (U937) | pIC50 (RPMI-8226) | pIC50 (SK-MM-1) | pIC50 (DOHH-2) | pIC50 (HG-3) | pIC50 (SC-1) | pIC50 (SU-DHL-8) | pIC50 (Toledo) | pIC50 (DERL-2) | pIC50 (SUP-T1) | IC50 at 72 h [1] [nM] | DNA damage on nuclear and mitochondrial DNA (PCR band) [2] |
| --- | --- | --- | --- | --- | --- | --- | --- | --- | --- | --- | --- | --- | --- | --- |
| CCOC(=O)[C@H](Cc1ccc(F)cc1)NC(=O)[C@@H](N)CCc1nc2cc(N(CCCl)CCCl)ccc2n1C [Example 2, Ethyl (2S)-2-[[(2S)-2-amino-4-[5-[bis(2-chloroethyl)amino]-1-methyl-benzimidazol-2-yl]butanoyl]amino]-3-(4-fluorophenyl)propanoate] | 8.11 | 8.11 | 7.85 | 7.38 | 7.42 | 8.28 | 7.59 | 7.68 | 7.69 | 8.18 | 8.11 | 7.75 | 7.5 | strong DNA damaging effect |
| CCOC(=O)[C@H](Cc1nc2cc(N(CCCl)CCCl)ccc2n1C)NC(=O)[C@@H](N)CC(C)C [Example 10, Ethyl (2S)-2-[[(2S)-2-amino-4-methyl-pentanoyl]amino]-3-[5-[bis(2-chloroethyl)amino]-1-methyl-benzimidazol-2-yl]propanoate] | 7.72 | 7.72 | 7.71 | 6.47 | 7.20 | 7.19 | 7.15 | 6.77 | 7.66 | 8.07 | 7.65 | 7.45 | 26.4 | – |
